Data from publication PMC11274128, “Modification and Synergistic Studies of a Novel Frog Antimicrobial Peptide against Pseudomonas aeruginosa Biofilms” (Antibiotics, 2024).
In brackets after ≈: the same amount, converted by molar mass. Like-named read-outs stand apart in the source and are kept apart here. Bridge positions count the residues as written; N and C are the ends. Peptide text beside a SMILES is read from it.

Legend:
Yeast = test: Geometric mean of MICs and TI value; format: cell-based, Candida albicans; details: C. albicans ATCC 10231
Protocol: The therapeutic potential of antimicrobial agents was valued based on their selectivity toward bacteria in reference to erythrocytes. The TI value was calculated from the results of antibacterial and haemolysis experiments of peptides using the following formula:TI value = HC10 / GMMICs.
GM was the geometric mean of MICs against all tested bacteria.

A. baumannii (BAA 747) = test: microbe, parasite or virus in culture; format: cell-based, Acinetobacter baumannii; details: planktonic A. baumannii BAA 747
Excerpt: (§1) The minimum inhibitory concentration (MIC) is the minimum concentration of an antimicrobial agent that prevents the visible growth of a bacterium or bacteria. The MIC is an important piece of data for research on new antimicrobial agents and helps in the effective selection of antibiotics to improve the success of treatment. The minimum bactericidal concentration (MBC) is defined as the lowest antibiotic concentration that kills 99.9% of the inoculum. This study mainly contained eight different microorganisms, which were Staphylococcus aureus (ATCC 6538), methicillin-resistant Staphylococcus aureus (NCTC 12493), Enterococcus faecalis (NCTC 12697), Escherichia coli (ATCC 8739), Klebsiella pneumoniae (ATCC 43816), Pseudomonas aeruginosa (ATCC CRM 9027), Acinetobacter baumannii (BAA 747), and Candida albicans (ATCC 10231). The bacteria were incubated in the compatible medium at 37 °C overnight.

[1] = tested on: E. faecalis NCTC 12697 biofilm; test: Peptide and antibiotic co-administration MBIC checkerboard assay; format: cell-based, Enterococcus faecalis; details: 24 h, crystal violet, 595 nm
Excerpt: The plate was then carefully cleaned under running water.

S. aureus ATCC 6538 = details: checkerboard MIC, planktonic S. aureus ATCC 6538, 37 °C, 24 h, OD 550 nm
Protocol: (§2) The bacteria were cultured, subcultured, diluted, and incubated as the methods of the MIC assay. The pure peptides and antibiotics were weighed and, respectively, dissolved in DMSO and dd water to make the final concentration of 2× MIC. […] Different concentrations of peptide and antibiotic solutions were added to a 96-well plate in the form of a checkerboard grid. The blank control and growth control were still 100 µL medium and 100 µL bacterial culture. The plate was incubated at 37 °C for 24 h. After that, the plate reader was used to monitor the absorbance of each well at 550 nm (The Synergy TM HT, BioTek, Winooski, VT, USA).
(§3) Parameter fractional inhibitory concentration indices (FICIs) were used to evaluate the synergistic effect, and the value of that was calculated as follows:FICI = FICa + FICb FICa = MIC combination peptide/MIC single peptide FICb = MIC combination antibiotic/MIC single antibiotic
(§4) The FICI value was interpreted as “synergy” (FICI ≤ 0.5), “no interaction” (0.5 < FICI ≤ 4), or “antagonism” (FICI > 4).

[2] = tested on: P. aeruginosa ATCC CRM 9027; details: checkerboard MIC, planktonic P. aeruginosa ATCC CRM 9027, 37 °C, 24 h, OD 550 nm
Protocol: as §2, §3, §4

E. faecalis NCTC 12697 = details: checkerboard MIC, planktonic E. faecalis NCTC 12697, 37 °C, 24 h, OD 550 nm
Protocol: as §2, §3, §4

MRSA NCTC 12493 = details: checkerboard MIC, planktonic MRSA NCTC 12493, 37 °C, 24 h, OD 550 nm
Protocol: as §2, §3, §4

E. coli ATCC 8739 = details: checkerboard MIC, planktonic E. coli ATCC 8739, 37 °C, 24 h, OD 550 nm
Protocol: as §2, §3, §4

K. pneumoniae ATCC 43816 = details: checkerboard MIC, planktonic K. pneumoniae ATCC 43816, 37 °C, 24 h, OD 550 nm
Protocol: as §2, §3, §4

A. baumannii BAA 747 = details: checkerboard MIC, planktonic A. baumannii BAA 747, 37 °C, 24 h, OD 550 nm
Protocol: as §2, §3, §4

[3] = tested on: P. aeruginosa (ATCC CRM 9027); test: microbe, parasite or virus in culture; format: cell-based, Pseudomonas aeruginosa; details: planktonic P. aeruginosa ATCC CRM 9027
Excerpt: as §1

[4] = tested on: A. baumannii BAA 747 biofilm; format: cell-based, Acinetobacter baumannii
Excerpt: (§5) The minimum bactericidal concentration (MBC) is defined as the lowest antibiotic concentration that kills 99.9% of the inoculum. The minimum biofilm inhibitory concentration (MBIC) is the lowest concentration that inhibits at least 90% of the formation of biofilm. The minimum biofilm eradication concentration (MBEC) is the minimum concentration that can eradicate at least 99% of the biofilm. In addition to the eight microorganisms described previously, this experiment was also applied to P. aeruginosa (ATCC 27853, ATCC BAA-2108, P. aeruginosa 01, P. aeruginosa 14).

[5] = tested on: E. faecalis NCTC 12697 biofilm; format: cell-based, Enterococcus faecalis
Excerpt: as §5

C. albicans (ATCC 10231) = format: cell-based, Candida albicans; details: yeast C. albicans ATCC 10231
Excerpt: as §1

[6] = 37 °C, nine repeats of three independent experiments
[7] = lowest concentration killing 99.9% of inoculum
[8] = peptide combined with gentamicin
[9] = peptide combined with levofloxacin
[10] = peptide combined with vancomycin
[11] = lowest concentration inhibiting at least 90% of biofilm formation
[12] = minimum concentration eradicating at least 99% of the biofilm

CC[C@H](C)[C@H](NC(=O)[C@H](CCCCN)NC(=O)[C@H](CCCCN)NC(=O)CNC(=O)[C@H](C)NC(=O)CNC(=O)[C@H](CC(C)C)NC(=O)[C@@H](NC(=O)CNC(=O)[C@H](CO)NC(=O)[C@H](CC(C)C)NC(=O)[C@H](CC(C)C)NC(=O)CN)C(C)C)C(=O)N[C@H](C(=O)N[C@H]1CSSC[C@@H](C(=O)O)NC(=O)[C@H](CCCNC(=N)N)NC(=O)CNC(=O)[C@H](CO)NC(=O)[C@H](CC(C)C)NC(=O)CNC1=O)C(C)C [Nigrosin-6VL] (H-GLLSGVLGAGKKIVCGLSGRC-OH; disulfide 15-21)
GM (geometric mean of MICs), Yeast (Yeast): 128.00 µM
MIC (A. baumannii (BAA 747); [6]): > 128 µM
MBC (A. baumannii (BAA 747); [7]): > 128 µM
Biofilm FICI ([1]; peptide combined with cefepime): 0.5
Biofilm FICI [1, 8]: 0.5
FICI (S. aureus ATCC 6538; peptide combined with cefepime): 0.625
FICI (S. aureus ATCC 6538; [8]): 1.5
FICI (S. aureus ATCC 6538; [9]): 0.625
FICI (S. aureus ATCC 6538; [10]): 2.25
FICI ([2]; peptide combined with cefepime): 0.5
FICI [2, 8]: 0.5
FICI [2, 9]: 0.5
FICI [2, 10]: >4
FICI (E. faecalis NCTC 12697; peptide combined with cefepime): 0.125
FICI (E. faecalis NCTC 12697; [8]): 0.625
FICI (E. faecalis NCTC 12697; [9]): 0.625
FICI (E. faecalis NCTC 12697; [10]): 0.625
FICI (MRSA NCTC 12493; peptide combined with cefepime): 0.75
FICI (MRSA NCTC 12493; [8]): 0.5
FICI (MRSA NCTC 12493; [9]): 2
FICI (MRSA NCTC 12493; [10]): 1
FICI (E. coli ATCC 8739; peptide combined with cefepime): 0.375
FICI (E. coli ATCC 8739; [8]): 0.125
FICI (E. coli ATCC 8739; [9]): 0.375
FICI (E. coli ATCC 8739; [10]): 1.125
FICI (K. pneumoniae ATCC 43816; peptide combined with cefepime): 0.1875
FICI (K. pneumoniae ATCC 43816; [8]): 0.1875
FICI (K. pneumoniae ATCC 43816; [9]): 0.625
FICI (K. pneumoniae ATCC 43816; [10]): 1.125
FICI (A. baumannii BAA 747; peptide combined with cefepime): 1
FICI (A. baumannii BAA 747; [8]): 0.1875
FICI (A. baumannii BAA 747; [9]): >4
FICI (A. baumannii BAA 747; [10]): 1.25
MIC ([3]; 37 °C, nine repeats of three independent experiments, read-out: MIC): 32 µM (≈ 63.6 µg/mL)
MBC ([3]; lowest concentration killing 99.9% of inoculum, read-out: MBC): 128 µM (≈ 254 µg/mL)
MBIC [4, 11]: >128/>128 µM
MBEC [4, 12]: >128/>128 µM
MBIC [5, 11]: >128/>128 µM
MBEC [5, 12]: >128/>128 µM
MIC (C. albicans (ATCC 10231); [6]): 128 µM (≈ 254 µg/mL)
MBC (C. albicans (ATCC 10231); [7]): > 128 µM
